Series [1] deals with prostate and seminal vesicle weights. As to the kind of experiment: In vivo reduction of prostate and seminal vesicle weights. Set-up: species or system rat. The note with it: male rats. As for the experimental part:
In vivo Reduction of Prostate and Seminal Vesicle Weights Male rats aged 8 to 10 weeks old (5 animals per group) were dosed orally with compounds once or twice a day at 12-hour intervals for 14 days. On day 14 the animals were euthanized and organs were surgically removed for wet weight determination including the prostate, seminal vesicles and testes.

Series [2] concerns the target T1, human CYP17 in LNCap-CYP17 cells (Homo sapiens, UniProt P05093).
T1 construct: expressed in transfected cells
T1 sequence (P05093 1-508): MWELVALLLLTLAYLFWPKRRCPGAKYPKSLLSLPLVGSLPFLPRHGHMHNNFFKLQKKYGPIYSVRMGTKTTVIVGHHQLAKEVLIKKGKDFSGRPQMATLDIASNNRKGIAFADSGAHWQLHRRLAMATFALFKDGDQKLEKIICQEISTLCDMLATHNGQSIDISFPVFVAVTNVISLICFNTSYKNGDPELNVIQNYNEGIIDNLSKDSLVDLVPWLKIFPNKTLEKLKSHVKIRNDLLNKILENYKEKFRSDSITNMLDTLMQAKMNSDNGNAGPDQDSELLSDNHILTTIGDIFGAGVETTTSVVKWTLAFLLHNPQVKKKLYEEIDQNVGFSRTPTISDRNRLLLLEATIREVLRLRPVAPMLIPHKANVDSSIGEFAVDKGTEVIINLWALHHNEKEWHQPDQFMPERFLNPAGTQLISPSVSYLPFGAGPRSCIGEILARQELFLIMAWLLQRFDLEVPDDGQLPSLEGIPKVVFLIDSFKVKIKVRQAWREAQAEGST
The series is described as follows: Cell-based human CYP17 inhibition assay, LNCap-CYP17 cells. To be noted: 16 hours. As for the experimental part:
Cell-Based Human CYP17 Inhibition Assay
1. H295R Adrenocortical Carcinoma Cells and Growth Media: The media for the H295R Adrenocortical carcinoma cells [NCI-H295A, ATCC Number CRL-2128, American Type Culture Collection, Manassas, Va., US] (500 mL) was a DMEM:F12 Mix 1:1 with 5% (2 mL) BD Nu Serum; 1% (5 mL) ITS+Premix [BD Biosciences] and 1% Penstrep. 2. LNCap-CYP17 Cells and Growth Media: Full length hCYP17a1 gene (NCBI Reference Sequence: NM_000102.3) was cloned in pcDNA3.1(+) vector between HindIII and XhoI site. The pcDNA3.1(+) vector contains the Neomycin resistance gene and was used for selection of stable cell line. The hCYP17a1 containing pcDNA3.1(+) was transfected into LNCap cells to create the LNCap-CYP17 cell line. The media for the LNCaP-CYP17 cells was RPMI 1640, 10% FBS, 1% PenStrep, Geneticin 400 μg/mL.
The H295R cells or LNCaP-hCYP17 cells were subcultured and 30,000 cells per well were seeded in a poly-d lysine plate and incubated overnight at 37° C. The next day the media was removed and 200 μL of fresh media with ^3H3-17α-hydroxy-pregnenolone (1:1000) was added. 50 μL of serially diluted compounds from a 5× plate (5 times the final desired concentration) was added. […]
The plates were incubated overnight (16 hours) at 37° C. […] Following the incubation for 30 minutes, readings for the radiotracer were taken using a Microbeta® trilux.

[3] abbreviates: 30 mg/kg orally once a day for 14 days.
Setting [4] is: 30 mg/kg orally twice a day for 14 days.

The source of these data is patent US8809372B2, “Pyridine derivatives” (Endo Pharmaceuticals, Inc., priority 2011, dated 2014).

Usually melting point stands for the temperature of the solid-liquid transition. Usually IC50 stands for the point on the concentration scale where inhibition reaches its midpoint.

Regarding `CC(O)(c1ccncc1)c1cnc(-c2ccc(F)cc2)s1` (racemic) [Example 7, 1-(2-(4-Fluorophenyl)thiazol-5-yl)-1-(pyridin-4-yl)ethanol], the melting point lay within 229 to 232 °C. Besides, in series [1] (setting [3]), the “reduction of prostate weight” value is on record as “about 50%” and the “reduction of seminal vesicle weight” value is “about 60%”.

`COc1ccc(-c2ccc(C(C)(O)c3ccncc3)nc2)cc1` (racemic) [Example 1, 1-(5-(4-Methoxyphenyl)pyridin-2-yl)-1-(pyridin-4-yl)ethanol] returned a concentration for half-maximal inhibition (IC50) in series [2] of 0.201 to 10 µM. On to `CC(O)(c1ccncc1)c1nc(-c2ccc(F)cc2)no1` (single isomer, unassigned; (+)) [Example 36, (+)-1-(3-(4-fluoro-phenyl)-1,2,4-oxadiazol-5-yl)-1-(pyridin-4-yl)ethanol], for which, in series [1] (setting [4]), the “reduction of prostate weight” value was “about 50%”. In the case of `Cn1cc(-c2ccc(C(C)(O)c3ccncc3)s2)ccc1=O` (single isomer, unassigned; (-)) [Example 17, (−)-5-(5-(1-hydroxy-1-(pyridin-4-yl)ethyl)thiophen-2-yl)-1-methylpyridin-2(1H)-one], the “reduction of prostate weight” value in series [1] (setting [4]) is listed as “about 50%”. On to `CC(O)(c1ccncc1)c1nc(-c2ccc(F)cc2)no1` (stereo not shown) [Example 34, 1-(3-(4-Fluorophenyl)-1,2,4-oxadiazol-5-yl)-1-(pyridin-4-yl)ethanol], for which, in series [1] (setting [4]), the “reduction of prostate weight” value was “about 50%”.
